Assay [1] concerns HepG2 cells. Particulars: Homo sapiens, HepG2, read-out: ACLY HepG2 14C-Pyruvate Assay serum free IC50 FA (IC50) [μM].
Description: ACLY HepG2 ^14C-Pyruvate Incorporation Serum-Free Assay (IC50 Fatty
The protocol of the assay (below) was followed:
(§1) After 48 hours, change medium with fresh growth medium.
(§2) After 18 hours, replaced medium using 0.5 mL fresh medium (5.5 mM Glucose, without FBS, 1% PS, without Pyruvate) containing Compounds or 0.5% DMSO, incubated at 37° C., 5% CO2 for 1 hour.
(§3) Add 3 μci of [14C]-pyruvate per well to the cell samples were incubated at 37° C., 5% CO2 for 5 hours.
Medium was removed and placed into a 15 mL centrifuge tube. Add 0.5 mL of 0.1M NaOH to each well and then transfer the cell lysates into the corresponding 15 mL centrifuge tubes. 1.0 mL of EtOH and 0.17 mL 50% KOH were added to 15 mL tubes containing medium and cell suspensions, then shaking tube gently. […] Saponification 15 mL tubes containing medium and cell suspensions were incubated at 90° C. for 1 hour, then cooled to room temperature. […] Cholesterol Extraction 5 mL of petroleum ether was added per tube to extract Cholesterol, shaken vigorously, centrifuged at 1000 rpm for 5 min, and ˜5 mL of the petroleum ether layer was transferred to a new glass tube (18*180 mm). […] Acidification The samples in 15 mL tube were acidified directly with 1 mL concentrated HCl, make sure pH was below 1. […] Fatty Acids Extraction 5 mL of petroleum ether was added per tube, shaken vigorously, centrifuged at 1000 rpm for 5 min, 5 mL of the petroleum ether layer was transferred to the corresponding glass tube. […] Repeat the Step 8 10. Count The petroleum ether extracts were pooled and evaporated to dryness overnight. The residue from the petroleum ether fractions were resuspended in 500 μL of chloroform-hexane (1:1) containing 420 μg of linoleic acid as a carrier. Add 200 μL of resuspending (chloroform-hexane (1:1) containing 168 μg of linoleic acid) to 2 mL Ultima Gold™, after 30 min, count on a scintillation counter.
The test system of assay [2] is HepG2 cells. Particulars: Homo sapiens, HepG2, read-out: ACLY HepG2 14C-Pyruvate Assay serum free IC50 Cholesterol (IC50) [μM].
Description: ACLY HepG2 ^14C-Pyruvate Incorporation Serum-Free Assay (IC50 Cholesterol and Fatty Acid Synthesis)
Compounds of the present invention were evaluated in a HepG2 ^14C-pyruvate incorporation assay. The protocol below was followed:
as §1, §2, §3
Medium was removed and placed into a 15 mL centrifuge tube. Add 0.5 mL of 0.1M NaOH to each well and then transfer the cell lysates into the corresponding 15 mL centrifuge tubes. 1.0 mL of EtOH and 0.17 mL 50% KOH were added to 15 mL tubes containing medium and cell suspensions, then shaking tube gently. […] Saponification 15 mL tubes containing medium and cell suspensions were incubated at 90° C. for 1 hour, then cooled to room temperature. […] Cholesterol Extraction 5 mL of petroleum ether was added per tube to extract Cholesterol, shaken vigorously, centrifuged at 1000 rpm for 5 min, and ˜5 mL of the petroleum ether layer was transferred to a new glass tube (18*180 mm). […] Acidification The samples in 15 mL tube were acidified directly with 1 mL concentrated HCl, make sure pH was below 1. […] Fatty Acids Extraction 5 mL of petroleum ether was added per tube, shaken vigorously, centrifuged at 1000 rpm for 5 min, 5 mL of the petroleum ether layer was transferred to the corresponding glass tube. […] Count The petroleum ether extracts were pooled and evaporated to dryness overnight. The residue from the petroleum ether fractions were resuspended in 500 μL of chloroform-hexane (1:1) containing 420 μg of linoleic acid as a carrier. Add 200 μL of resuspending (chloroform-hexane (1:1) containing 168 μg of linoleic acid) to 2 mL Ultima Gold™, after 30 min, count on a scintillation counter.
Assay [3] concerns the target T1, ACL (Homo sapiens (Human), UniProt P53396). In words: ACLY-MDH Coupled Assay.
Target sequence in this assay (P53396 whole entry, species assumed): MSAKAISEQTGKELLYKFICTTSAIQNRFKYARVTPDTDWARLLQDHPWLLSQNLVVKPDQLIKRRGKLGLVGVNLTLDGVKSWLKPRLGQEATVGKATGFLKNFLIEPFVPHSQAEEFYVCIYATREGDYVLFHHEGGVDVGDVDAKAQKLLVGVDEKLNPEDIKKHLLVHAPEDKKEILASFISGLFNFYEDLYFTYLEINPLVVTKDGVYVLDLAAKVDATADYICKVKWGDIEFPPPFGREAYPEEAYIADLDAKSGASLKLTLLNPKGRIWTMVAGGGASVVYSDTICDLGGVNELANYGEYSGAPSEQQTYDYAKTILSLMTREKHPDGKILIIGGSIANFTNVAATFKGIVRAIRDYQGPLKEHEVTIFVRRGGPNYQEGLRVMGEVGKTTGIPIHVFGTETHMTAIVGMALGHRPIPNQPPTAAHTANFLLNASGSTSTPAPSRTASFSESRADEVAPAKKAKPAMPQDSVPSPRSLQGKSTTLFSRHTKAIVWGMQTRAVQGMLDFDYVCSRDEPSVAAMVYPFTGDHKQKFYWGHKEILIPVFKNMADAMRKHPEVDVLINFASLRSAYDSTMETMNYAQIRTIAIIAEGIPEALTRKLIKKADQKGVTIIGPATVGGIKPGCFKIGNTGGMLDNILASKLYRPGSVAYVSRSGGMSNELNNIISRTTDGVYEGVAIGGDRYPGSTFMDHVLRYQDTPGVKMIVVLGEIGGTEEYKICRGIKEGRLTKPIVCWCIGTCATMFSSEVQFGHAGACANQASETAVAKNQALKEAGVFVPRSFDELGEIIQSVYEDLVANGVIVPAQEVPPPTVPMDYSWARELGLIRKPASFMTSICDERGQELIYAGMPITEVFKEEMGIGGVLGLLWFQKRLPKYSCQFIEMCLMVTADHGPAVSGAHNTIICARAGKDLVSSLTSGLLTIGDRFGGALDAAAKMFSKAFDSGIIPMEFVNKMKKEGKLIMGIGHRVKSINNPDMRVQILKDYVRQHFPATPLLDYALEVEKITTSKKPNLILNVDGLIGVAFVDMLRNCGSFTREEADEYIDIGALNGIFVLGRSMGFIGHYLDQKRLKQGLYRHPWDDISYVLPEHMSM
Description: Compounds of the present invention were evaluated in an ACLY Coupled Assay.
The assay protocol for the Coupled Assay (below) was followed:
b) Add 1 μL cpds to 96 assay plate, Test cpd conc: 100/30/10 μM top dose, 3 folds dilution, 10+0+control (control: buffer without ACL+DMSO) points, 1000 rpm for 1 min, incubation at 25° C. for 60 min
The target in assay [4] is T1, ACL. In words: ADP-Glo Assay. (ADP-Glo turns the ADP formed in a reaction into a luminescent signal.)
Target sequence in this assay (P53396 other isoform, or with tags, fused parts or gaps isoform P53396-2): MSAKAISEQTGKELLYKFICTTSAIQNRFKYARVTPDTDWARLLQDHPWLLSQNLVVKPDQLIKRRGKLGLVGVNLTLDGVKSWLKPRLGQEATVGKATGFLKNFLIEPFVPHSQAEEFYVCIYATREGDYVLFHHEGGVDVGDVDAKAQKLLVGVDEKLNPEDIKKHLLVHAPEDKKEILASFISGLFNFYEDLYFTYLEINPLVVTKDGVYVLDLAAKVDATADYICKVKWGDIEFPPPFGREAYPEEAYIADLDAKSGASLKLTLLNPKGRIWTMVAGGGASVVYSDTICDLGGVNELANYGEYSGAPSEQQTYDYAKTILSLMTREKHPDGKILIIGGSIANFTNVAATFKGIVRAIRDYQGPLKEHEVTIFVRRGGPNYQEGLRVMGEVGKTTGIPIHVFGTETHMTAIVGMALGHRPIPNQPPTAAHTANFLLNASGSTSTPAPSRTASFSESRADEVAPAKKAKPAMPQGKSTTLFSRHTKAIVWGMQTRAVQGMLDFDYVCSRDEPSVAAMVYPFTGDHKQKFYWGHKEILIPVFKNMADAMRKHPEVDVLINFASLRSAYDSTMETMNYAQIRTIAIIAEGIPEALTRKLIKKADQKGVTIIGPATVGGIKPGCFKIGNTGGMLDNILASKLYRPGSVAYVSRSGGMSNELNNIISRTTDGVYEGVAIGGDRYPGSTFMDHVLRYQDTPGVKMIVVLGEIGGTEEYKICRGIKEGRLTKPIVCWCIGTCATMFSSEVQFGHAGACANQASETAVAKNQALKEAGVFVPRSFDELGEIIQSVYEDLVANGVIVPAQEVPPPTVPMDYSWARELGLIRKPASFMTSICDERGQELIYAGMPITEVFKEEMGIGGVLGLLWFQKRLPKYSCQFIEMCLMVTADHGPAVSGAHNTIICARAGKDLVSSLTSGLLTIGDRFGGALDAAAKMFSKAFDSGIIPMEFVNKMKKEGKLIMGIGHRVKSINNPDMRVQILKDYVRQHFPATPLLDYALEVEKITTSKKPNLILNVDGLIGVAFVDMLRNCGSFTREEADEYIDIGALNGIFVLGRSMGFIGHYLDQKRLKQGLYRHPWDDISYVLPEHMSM
Where [5] appears, read: read-out: ACL-ADP-Glo (IC50), 3 nM ACL, 15 μM ATP, 3 μM CoA, 300 μM Citrate.
[6] abbreviates: read-out: ACL-MDH Coupled Assay (IC50), 8 nM ACL, 60 μM CoA Na2, 85 μM Citrate, 250 μM ATP, 250 μM NADH.

Molecules are shown by their SMILES. Like-named read-outs stand apart in the source and are kept apart here. Bounds are passed on as bounds.

In general, IC50 refers to the point on the concentration scale where inhibition reaches its midpoint. On to `COc1ccc(-c2ccccc2)cc1NS(=O)(=O)c1c(C)c(Cl)cc(Cl)c1O` [I-1, 3,5-dichloro-2-hydroxy-N-(4-methoxy-[1,1′-biphenyl]-3-yl)-6-methylbenzenesulfonamide], for which the IC50 in the assay with HepG2 cells [1] lay within 1 to 10 µM; in the assay with HepG2 cells [2], 1 to 5 µM; on ACL [3] it was 50 to 500 nM; against ACL [4], 50 to 500 nM.
For the compound `COc1ccc(-c2ccc(F)cc2)cc1NS(=O)(=O)c1cc(Cl)cc(Cl)c1O` [I-6, 3,5-dichloro-N-(4′-fluoro-4-methoxy-[1,1′-biphenyl]-3-yl)-2-hydroxybenzenesulfonamide], the 50% inhibitory concentration (IC50) in the assay with HepG2 cells [1] was more than 10 µM; in the assay on HepG2 cells [2] it was 1 to 5 µM; against ACL [3], 50 to 500 nM; against ACL [4], 50 to 500 nM.
Regarding `COc1ccc(-c2cccs2)cc1NS(=O)(=O)c1cc(Cl)cc(Cl)c1O` [I-9, 3,5-dichloro-2-hydroxy-N-(2-methoxy-5-(thiophen-2-yl)phenyl)benzenesulfonamide], the IC50 was in the range of 1 to 10 µM in the assay on HepG2 cells [1], 1 to 5 µM in the assay on HepG2 cells [2], 50 to 500 nM against ACL [3] and 50 to 500 nM against ACL [4].
With `COc1cc(-c2ccccc2)ccc1NS(=O)(=O)c1cc(Cl)cc(Cl)c1O` [I-13, 3,5-dichloro-2-hydroxy-N-(3-methoxy-[1,1′-biphenyl]-4-yl)benzenesulfonamide], the IC50 with HepG2 cells [1] fell in the range of 1 to 10 µM; in the assay on HepG2 cells [2], 1 to 5 µM; at ACL [3], 500 to 30000 nM; against ACL [4], 500 to 20000 nM.
Turning to `O=S(=O)(Nc1ccccc1OCc1ccccc1)c1cc(Cl)cc(Cl)c1O` [I-15, N-(2-(benzyloxy)phenyl)-3,5-dichloro-2-hydroxybenzenesulfonamide], the IC50 in the assay on HepG2 cells [1] lay in the range of 1 to 10 µM; in the assay on HepG2 cells [2], 1 to 5 µM; on ACL [3], 500 to 30000 nM; at ACL [4], 500 to 20000 nM.
Turning to `O=S(=O)(NC(c1ccccc1)c1ccccc1)c1cc(Cl)cc(Cl)c1O` [I-16, N-benzhydry1-3,5-dichloro-2-hydroxybenzenesulfonamide], the IC50 in the assay with HepG2 cells [1] is 1 to 10 µM; with HepG2 cells [2] it was 1 to 5 µM; against ACL [3], 500 to 30000 nM; at ACL [4], 500 to 20000 nM.
Regarding `COc1ccc(-c2ccccc2)cc1NS(=O)(=O)c1cc(Cl)cc(Br)c1O` [I-20, 3-bromo-5-chloro-2-hydroxy-N-(2-methoxy-5-phenylphenyl)benzene-1-sulfonamide], the IC50 is 1 to 10 µM in the assay on HepG2 cells [1], 1 to 5 µM with HepG2 cells [2], less than 50 nM against ACL [3] and 50 to 500 nM against ACL [4].
On to `COc1ccc(-c2ccccc2)cc1NS(=O)(=O)c1cc(Br)cc(Cl)c1O` [I-21, 5-bromo-3-chloro-2-hydroxy-N-(2-methoxy-5-phenylphenyl)benzene-1-sulfonamide], for which the IC50 with HepG2 cells [1] was in the range of 1 to 10 µM; in the assay with HepG2 cells [2], 1 to 5 µM; against ACL [3] it was 50 to 500 nM; against ACL [4] it was 50 to 500 nM.
For `O=S(=O)(Nc1cc(-c2ccccc2)ccc1F)c1cc(Cl)cc(Br)c1O` [I-23, 3-bromo-5-chloro-N-(4-fluoro-[1,1′-biphenyl]-3-yl)-2-hydroxybenzenesulfonamide], the IC50 was 1 to 10 µM in the assay on HepG2 cells [1], 1 to 5 µM with HepG2 cells [2], less than 50 nM against ACL [3] and 50 to 500 nM against ACL [4].
With `N#Cc1cc(Cl)c(O)c(S(=O)(=O)Nc2cc(-c3ccccc3)ccc2F)c1` [I-31, 3-chloro-5-cyano-N-(4-fluoro-[1,1′-biphenyl]-3-yl)-2-hydroxybenzenesulfonamide], the IC50 in the assay on HepG2 cells [1] was more than 10 µM; with HepG2 cells [2], 1 to 5 µM; against ACL [3], 50 to 500 nM; at ACL [4] (setting [5]), less than 50 nM.
Turning to `O=S(=O)(Nc1cc(-c2ccccc2)ccc1F)c1cccc(Cl)c1O` [I-33, 3-chloro-N-(4-fluoro-[1,1′-biphenyl]-3-yl)-2-hydroxybenzenesulfonamide], the IC50 in the assay on HepG2 cells [1] is more than 10 µM; in the assay with HepG2 cells [2] it was 1 to 5 µM; against ACL [3], 500 to 30000 nM; against ACL [4] it was 50 to 500 nM.
In the same order, the values of `O=S(=O)(Nc1cc(-c2ccccc2)ccc1F)c1cc(Br)cc(Cl)c1O` [I-34, 5-bromo-3-chloro-N-(2-fluoro-5-phenylphenyl)-2-hydroxybenzene-1-sulfonamide] are more than 10 µM, 1 to 5 µM, less than 50 nM and 50 to 500 nM.
In the same order, the values of `O=S(=O)(c1cc(Cl)cc(Br)c1O)N(Cc1ccccc1)c1cc(-c2ccccc2)ccc1F` [I-36, N-benzyl-3-bromo-5-chloro-N-(4-fluoro-[1,1′-biphenyl]-3-yl)-2-hydroxybenzenesulfonamide] are 1 to 10 µM, 1 to 5 µM, 500 to 30000 nM and 500 to 20000 nM.
For the compound `O=S(=O)(Nc1cc(-c2ccccc2)c(F)cc1F)c1cc(Cl)cc(Cl)c1O` [I-41, 3,5-dichloro-N-(2,4-difluoro-5-phenylphenyl)-2-hydroxybenzene-1-sulfonamide], the IC50 is more than 10 µM with HepG2 cells [1], 1 to 5 µM with HepG2 cells [2], less than 50 nM at ACL [3] (setting [6]) and less than 50 nM on ACL [4] (setting [5]).
Take `COC(=O)c1cc(Cl)c(O)c(S(=O)(=O)Nc2cc(-c3ccccc3)ccc2F)c1` [I-47, Methyl 3-chloro-5-(N-(4-fluoro-[1,1′-biphenyl]-3-yl)sulfamoyl)-4-hydroxybenzoate]: the IC50 with HepG2 cells [1] is 1 to 10 µM; with HepG2 cells [2], 1 to 5 µM; at ACL [3] (setting [6]), less than 50 nM; on ACL [4] (setting [5]), less than 50 nM.
In the case of `COC(=O)c1cc(Cl)c(O)c(S(=O)(=O)Nc2cc(-c3cccnc3)ccc2OC)c1` [I-48, Methyl 3-chloro-4-hydroxy-5-(N-(2-methoxy-5-(pyridin-3-yl)phenyl)sulfamoyl)benzoate], the IC50 in the assay on HepG2 cells [1] was more than 10 µM; with HepG2 cells [2], 1 to 5 µM; against ACL [3], 500 to 30000 nM; against ACL [4] it was 50 to 500 nM.
Take `COc1ccc(-c2ccccc2)cc1NS(=O)(=O)c1cc(-c2ncco2)cc(Cl)c1O` [I-59, 3-chloro-2-hydroxy-N-(2-methoxy-5-phenylphenyl)-5-(1,3-oxazol-2-yl)benzene-1-sulfonamide]: the half-inhibitory concentration (IC50) is more than 10 µM in the assay with HepG2 cells [1], 1 to 5 µM in the assay on HepG2 cells [2], 50 to 500 nM against ACL [3] and 50 to 500 nM at ACL [4].
Regarding `COC(=O)c1cc(Cl)c(O)c(S(=O)(=O)Nc2cc(-c3cccs3)ccc2F)c1` [I-60, Methyl 3-chloro-5-[[2-fluoro-5-(thiophen-2-yl)phenyl]sulfamoyl]-4-hydroxybenzoate], the IC50 with HepG2 cells [1] is 1 to 10 µM; with HepG2 cells [2], less than 1 µM; at ACL [3] (setting [6]) it was less than 50 nM; at ACL [4] (setting [5]) it was less than 50 nM.
Regarding `COC(=O)c1cc(Cl)c(O)c(S(=O)(=O)Nc2cc(-c3ccccc3)c(F)cc2F)c1` [I-65, Methyl 3-chloro-5-[(2,4-difluoro-5-phenylphenyl)sulfamoyl]-4-hydroxybenzoate], the IC50 in the assay with HepG2 cells [1] is more than 10 µM; in the assay with HepG2 cells [2] it was 5 to 20 µM; on ACL [3] (setting [6]) it was less than 50 nM; at ACL [4] (read-out: ACL-ADP-Glo (IC50)) it was less than 50 nM.
Take `CN(C)C(=O)c1cc(Cl)c(O)c(S(=O)(=O)Nc2cc(-c3ccccc3)c(F)cc2F)c1` [I-83, 3-chloro-5-[(2,4-difluoro-5-phenylphenyl)sulfamoyl]-4-hydroxy-N,N-dimethylbenzamide]: the IC50 is more than 10 µM in the assay with HepG2 cells [1] and 1 to 5 µM with HepG2 cells [2].

The values above are taken from patent US11555012B2 (Nimbus Artemis, Inc., priority 2018, dated 2023).
